From patent US6750008B1, “Methods and compositions for inhibition of membrane fusion-associated events, including HIV transmission” (priority 1999, dated 2004)

Key:
[1] = system: HIV-1LAI virus; assay: Cell fusion assay (HIV-1 induced syncytia formation); assay type: cell-based
Source text: The results of several such experiments are presented herein.

[2] = system: HIV-2; assay: Fusion inhibition assay, HIV-2 mediated syncytia formation; assay type: cell-based; conditions: FIG. 5
Method: Approximately 7×10^4 Molt cells were incubated with 1×10^4 CEM cells chronically infected with the HIV-1LAI virus in 96-well plates (one-half area cluster plates; Costar, Cambridge, Mass.) in a final volume of 100 μl culture medium as previously described (Matthews, T. J. et al., 1987, Proc. Natl. Acad. Sci. USA 84: 5424-5428). Peptide inhibitors were added in a volume of 10 μl and the cell mixtures were incubated for 24 hr. at 37° C. At that time, multinucleated giant cells were estimated by microscopic examination at a 40× magnification which allowed visualization of the entire well in a single field.

[3] = system: HIV-1LAI virus
Method: (§1) Synthetic peptides were incubated at 37° C. with either 247 TCID50 (for experiment depicted in FIG. 2), or 62 TCID50 (for experiment depicted in FIG. 3) units of HIV-1LAI virus or 25 TCID50 units of HIV-2NIHZ and CEM CD4^+ cells at peptide concentrations of 0, 0.04, 0.4, 4.0, and 40 μg/ml for 7 days. The resulting reverse transcriptase (RT) activity in counts per minute was determined using the assay described, below, in Section 6.1.5. See Reed, L. J. et al., 1938, Am. J. Hyg. 27: 493-497 for an explanation of TCID50 calculations.
(§2) The micro-reverse transcriptase (RT) assay was adapted from Goff et al. (Goff, S. et al., 1981, J. Virol. 38:239-248) and Willey et al. (Willey, R. et al., 1988, J. Virol. 62:139-147). Supernatants from virus/cell cultures are adjusted to 1% Triton-X100. A 10 μl sample of supernatant was added to 50 μl of RT cocktail in a 96-well U-bottom microtitre plate and the samples incubated at 37° C. for 90 min. The RT cocktail contained 75 mM KCl, 2 mM dithiothreitol, 5 mM MgCl2, 5 μg/ml poly A (Pharmacia, cat. No. 27-4110-01), 0.25 units/ml oligo dT (Pharmacia, cat. No. 27-7858-01), 0.05% NP40, 50 mM Tris-HCl, pH 7.8, 0.5 μM non-radioactive dTTP, and 10 μCi/ml ^32P-dTTP (Amersham, cat. No. PB.10167).
After the incubation period, 40 μl of reaction mixture was applied to a Schleicher and Schuell (S+S) NA45 membrane (or DE81 paper) saturated in 2×SSC buffer (0.3M NaCl and 0.003M sodium citrate) held in a S+S Minifold over one sheet of GB003 (S+S) filter paper, with partial vacuum applied. Each well of the minifold was washed four times with 200 μl 2×SSC, under full vacuum. The membrane was removed from the minifold and washed 2 more times in a pyrex dish with an excess of 2×SSC. Finally, the membrane was drained on absorbent paper, placed on Whatman #3 paper, covered with Saran wrap, and exposed to film overnight at −70° C.
DP178 (SEQ ID:1) was next tested for its ability to block CD-4^+ CEM cell infection by cell free HIV-1 virus. […]

[4] = system: HIV-2NIHZ; assay: Cell free virus infection assay (RT production); assay type: cell-based; conditions: 25 TCID50 HIV-2NIHZ, CEM cells, 7 days
Method: as §1
as §2, with “PB.10167). […]” for “PB.10167).”

[5] = system: HIV-1IIIB chronically infected CEM cells; assay type: cell-based; conditions: 10 nM
Method: Cell fusion assays were performed as previously described (Matthews et al., 1987, Proc. Natl. Acad. Sci. USA 84: […]). CEM cells (7×10^4) were incubated with HIV-1IIIB chronically infected CEM cells (10^4) in 96-well flat-bottomed half-area plates (Costar) in 100 μl culture medium. Peptide and fusion proteins at various concentrations in 10 μl culture medium were incubated with the cell mixtures at 37° C. for 24 hours. Multinucleated syncytia were estimated with microscopic examination.
No peptide or fusion protein was added in the control samples.

[6] = system: HIV-1IIIB; assay type: cell-based
[7] = system: Fab-d; assay: ELISA analysis of DP178 binding to the leucine zipper motif of gp41 (Fab-d ELISA); parameters: species or system human; conditions: reagent alone
Method: The amino acid sequence of DP178 used is: […]. […] Each well was washed three times with distilled water then blocked with 3% bovine serum albumin (BSA) for 2 hours. After blocking, peptides with 0.5% BSA in TBST (40 mM Tris-HCl pH7.5, 150 mM NaCl, 0.05% Tween 20) were added to the ELISA plates and incubated at room temperature for 1 hour. After washing three times with TBST, Fab-d was added at a concentration of 10 ng/ml with 0.5% BSA in TBST. The plates were washed three times with TBST after incubation at room temperature for 1 hour. Horse radish peroxidase (HRP) conjugated goat antihuman Fab antiserum at a 2000 fold dilution in TBST with 0.5% BSA was added to each well and incubated at room temperature for 45 minutes. The plates were then washed four times with TBST. The peroxidase substrate o-phenylene diamine (2.5 mg/ml) and 0.15% H2O2 were added to develop the color. The reaction was stopped with an equal volume of 4.5 N H2SO4 after incubation at room temperature for 10 minutes. The optical density of the stopped reaction mixture was measured with a micro plate reader (Molecular Design) at 490 nm.

[8] = system: HIV-1/IIIb; assay: Anti-HIV assays of DP107/DP178 truncations and mutations; assay type: cell-based; conditions: worded 'results shown are for 4 ng/ml'
Source text: Anti-HIV assays: The antiviral assays performed were as those described, above, in Section 6.1. Assays utilized HIV-1/IIIb and/or HIV-2 NIHZ isolates. Purified peptides were used, unless otherwise noted in FIGS. 49A-C.

## Enfuvirtide
[1]
  selectivity as inhibitor of HIV-1-mediated over HIV-2 mediated cell fusion: 4 log
[1]; FIG. 5, HIV-1 vs HIV-2
  peptide concentration blocking HIV-1-mediated syncytia formation: below 1 ng/ml
[1]; HIV-1LAI
  complete protection against syncytium formation down to lowest concentration tested: ≤ 12.5 ng/mL
[1]; Molt cells + chronically HIV-1 infected CEM cells, 24 hr
  lowest effective inhibitory concentration, complete block of virus induced syncytia formation: 1 to 10 ng/mL
[1]; all other HIV-1 viruses (HIV-1MN, HIV-1RF, HIV-1SF2)
  complete protection against syncytium formation down to lowest concentration used: ≤ 100 ng/mL
[2]
  concentration failing to block HIV-2 mediated syncytia formation: > 10 µg/mL
[3]; 62 TCID50 HIV-1LAI, CEM cells, 7 days
  IC50, inhibition of RT production: about 31 ng/ml
[3]; cell free virus infection
  potency as HIV-1 inhibitor relative to HIV-2 inhibitor: two logs more potent
[4]
  IC50 for HIV-2NIHZ: much higher
[5]
  syncytia in HIV-1 induced cell-cell fusion: not observable syncytia
[6]
  IC90: 0.08 µM
[7]
  binding of Fab-d: failed to bind
[8]
  anti-HIV antiviral data, results shown (FIGS. 49A-C): 4 ng/mL
